Results as given in ChEMBL document CHEMBL1154172, “Synthesis and anti-inflammatory evaluation of novel angularly or linearly fused coumarins” (Eur J Med Chem, 2009).
Activity calls are given as the source filed them. The rule behind the calls is not given here.

Key:
[1] = test system: Radical scavenging activity; assay: Antioxidant activity assessed as DPPH free radical scavenging activity at 0.05 mM after 20 mins; format: functional
[2] = test system: Radical scavenging activity; assay: Antioxidant activity assessed as DPPH free radical scavenging activity at 0.1 mM after 20 mins; format: functional
[3] = test system: Radical scavenging activity; assay: Antioxidant activity assessed as DPPH free radical scavenging activity at 0.05 mM after 60 mins; format: functional
[4] = test system: Radical scavenging activity; assay: Antioxidant activity assessed as DPPH free radical scavenging activity at 0.1 mM after 60 mins; format: functional
[5] = Antioxidant activity against Fe3+/ascorbic acid system generated hydroxyl radicals assessed as inhibition of formaldehyde production at 0.1 mM; format: functional; parameters: scale not given: the % may be the effect or the level left
Glycine max = assay: Inhibition of soybean lipoxygenase assessed as conversion of sodium linoleate to 13-hydroperoxylinoleic acid at 0.1 mM
[6] = Antioxidant activity assessed as superoxide radical scavenging activity at 0.1 mM after 2 mins by nitroblue tetrazolium method; format: functional
Rattus norvegicus [7] = assay: Antiinflammatory activity in Fisher 344 rat assessed as inhibition of carrageenan-induced paw edema at 0.01 mmol/kg, ip after 3.5 hrs; format: functional; conditions: Fisher 344, ip
[8] = Toxicity in Fisher 344 rat assessed as mortality at 0.01 mmol/kg, ip administered daily once for 4 days measured after 24 hrs final post dose; format: organism-based; conditions: in vivo, read-out: Activity
Rattus norvegicus [9] = assay: Toxicity in Fisher 344 rat assessed as gastrointestinal ulcer at 0.01 mmol/kg, ip administered daily once for 4 days measured after 24 hrs final post dose; format: organism-based; conditions: in vivo
Rattus norvegicus [10] = assay: Toxicity in Fisher 344 rat assessed as body weight change per 100 g of animal at 0.01 mmol/kg, ip administered daily once for 4 days measured after 24 hrs final post dose; format: organism-based; conditions: in vivo
Rattus norvegicus [11] = assay: Toxicity in Fisher 344 rat assessed as melena defecation at 0.01 mmol/kg, ip administered daily once for 4 days measured after 24 hrs final post dose; format: organism-based; conditions: in vivo
[12] = Inhibition of soybean lipoxygenase assessed as conversion of sodium linoleate to 13-hydroperoxylinoleic acid; parameters: species or system Glycine max

Row | Compound | Activity [1] | Activity [2] | Activity [3] | Activity [4] | Activity [5] | inhibition (Glycine max) | Activity [6] | inhibition in vivo at 10 µmol/kg (Rattus norvegicus [7]) | mortality at 24 h [8] | Activity (Rattus norvegicus [9]) | Activity (Rattus norvegicus [10]) | Activity (Rattus norvegicus [11]) | IC50 [12]
1 | O=c1ccc2ccc3c(c2o1)CCCC3 | 25% | inactive | 15% | inactive | inactive | 4% | 16% | 54% |  |  |  |  | 
2 | COC(=O)c1cc(=O)oc2cc3c(cc12)CCCC3 | 12% | 12% | 21% | 25% | 74% | 78% | 100% | 43.4% |  |  |  |  | 
3 | COC(=O)c1cc(=O)oc2c3c(ccc12)OC(C)(C)C3 | 11% | inactive | 12% | inactive | 72% | 4% | inactive | 65% | 0% | 0% | 2.5 g | Toxic | 
4 | O=C(O)/C=C/c1ccc(O)c(O)c1 [CAFFEIC ACID] |  |  |  |  |  |  | 46% |  |  |  |  |  | 600 µM
5 | COC(=O)c1cc(=O)oc2cc3c(cc12)OCO3 | 12% | 9% | 18% | 21% | 78% | 0% |  | 45.5% |  |  |  |  | 
6 | COC(=O)c1cc(=O)oc2c3c(ccc12)CCCC3 | 27% | inactive | 31% | inactive | inactive |  | inactive | 62% |  |  |  |  | 100 µM
7 | COC(=O)c1cc(=O)oc2ccc3c(c12)CCCC3 | 14% | 18% | 17% | 20% | 53% | 31% | inactive | 34% |  |  |  |  | 
8 | CC(Cc1ccc(O)c(O)c1)C(C)Cc1ccc(O)c(O)c1 (centres undefined) | 63% | 65% | 81% | 83% |  |  |  |  |  |  |  |  | 
9 | COC(=O)c1cc(=O)oc2cc3c(cc12)CCC3 | 19% | 14% | 22% | 27% | 64% | 10% |  |  |  |  |  |  | 
10 | COc1ccc2c(c1)c(CC(=O)O)c(C)n2C(=O)c1ccc(Cl)cc1 [INDOMETHACIN] |  |  |  |  |  |  |  | 47% | 50% | 78% | -9 g | Non-toxic | 
11 | Cc1c(C)c2c(c(C)c1O)CCC(C)(C(=O)O)O2 (centres undefined) |  |  |  |  | 88% |  |  |  |  |  |  |  | 
